Results taken from PubChem BioAssay AID179 (DTP/NCI, 2004).
Several values for one entry are separate records, joined by “and”; a condition that tells them apart may be missing. Identical values can stand only once. Activity calls are given as the source filed them.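 The calls were made as follows: active = compounds giving half or more protection of infected cells from virus-caused growth loss, again on retest; inactive = the rest.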 Where a SMILES comes first, the peptide text is derived from it.

System: CEM cells HIV-1 protection, formazan growth assay
Assay: NCI AIDS Antiviral Assay
Details: for IC50: measured here: growth of uninfected CEM cells
Summary of the method: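 Protection of CEM cells against HIV-1 was scored from cell growth (soluble formazan) across five concentrations, with parallel uninfected cells. Lack of protection may reflect toxicity.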

| SMILES | outcome | EC50 [µM] | IC50 |
| --- | --- | --- | --- |
| COc1ccc(-c2cc(C(=O)O)c3cc4ccccc4cc3n2)cc1Br | inactive | – | – |
| NC(N)=NS(N)(=O)=O | – | > 200 | > 200 µM |
| CCCCN=C(NC#N)N(Cc1ccccc1)Cc1ccccc1 | – | > 100 | 22.9 µM |
| ClCCc1ccccc1CC1=NCCc2ccccc21 | – | > 200 | 36.3 µM |
| O=S1c2ccccc2Sc2ccccc21 | – | 75.9 | 174 µM |
| CC(=O)Nc1ccc(C(C2=C(O)c3ccccc3C(=O)C2=O)C2=C(O)c3ccccc3C(=O)C2=O)cc1 | – | > 200 | 16.2 µM |
| CC12CCC(=O)C=C1C=CC1C2CCC2(C)C1CCC21CCC(=O)O1 (stereo unspecified) | – | > 200 | 83.2 µM |
| COC(=O)N1CC2CCCC(C2)c2ccccc21 (stereo unspecified) | – | > 204 | 186 µM |
| OC1COCC2N3C(=NN12)Sc1ccccc13 (stereo unspecified) | inactive | – | – |
| Cc1cc2c(=O)cc(-c3ccccc3Cl)oc2c(C#N)c1C | – | > 100 | > 100 µM |
| COc1cccc(/C=N/NC(=O)c2ccccc2[O-])c1[O-].[OH3+].[Pd+2] | – | > 200 | 1.26 µM |
| CNc1c2cccc(C)c2nc2c(C(=O)NCCN(C)C)cccc12 | – | > 0.2 | 0.0191 µM |
| CCOC(=O)C1C(c2ccc(OC)cc2)c2c([nH][nH]c2=O)CC1(C)O (stereo unspecified) | – | > 200 | > 200 µM |
| C=C1C(=O)OC2CC1(C)OCC2[C@H]1CCC2C3CC=C4CC=CC(=O)[C@]4(C)C3CC[C@@]21C (stereo partly specified) | – | > 155 | 3.31 µM |
| Cc1nc(-n2[nH]c(C)c(CCO)c2=O)[nH]c(=O)c1CCO | inactive | – | – |
| CC(=O)c1ccc2c(c1)CC1(C2)Cc2cc3c(c(C(=O)O)c2C1)CCC3 (stereo unspecified) | – | > 200 | 61.7 µM |
| CSc1n[nH]c(NC(=O)c2ccccc2Cl)n1 | – | > 132 | > 132 µM |
| Nc1nc(Cl)cc(Nc2cc(Cl)cc(Cl)c2)n1 | – | > 200 | 23.4 µM |
| O=C(CCC(=O)c1ccc(Cl)cc1)NO | – | > 200 | 123 µM |
| Cn1c2c(c3ccccc31)CCN(CCCCN1CCN(c3ccccc3)CC1)C2=O | – | > 30.9 | > 30.9 µM |
| CN1CCCCCCC1CO (stereo unspecified) | inactive | – | – |
| O=C(C[N+]12CCC(O)C1C(CO)CC2)c1ccc(Br)cc1 (stereo unspecified) | – | > 575 | > 575 µM |
| COc1ccc(CC#N)c(OCc2ccccc2)c1 | – | > 53.7 | 17.8 µM |

| SMILES | outcome | EC50 [µM] | IC50 |
| --- | --- | --- | --- |
| COC(=O)c1cc2ccc(O)c(O)c2cn1 | – | > 195 | 2.24 µM and 2.34 µM |
| Clc1ccc(-c2nn3c(CCCCCCCCc4nnc5sc(-c6ccc(Cl)cc6)nn45)nnc3s2)cc1 | – | > 200 | 19.1 µM |
| O=c1c2ccccc2[se]n1-c1ccc(I)cc1 | – | > 11 | 10.7 µM |
| COc1ccc(C[C@H](N)C(=O)N2C[C@H](CO)C[C@H](n3cnc4c(N(C)C)ncnc43)C2)cc1 | – | > 138 | 81.3 µM |
| Cn1cnc([N+](=O)[O-])c1Sc1nc2cccnc2s1 | – | > 170 | 4.57 µM |
| NCCCNCCCCNC(=O)C(O)NC(=O)CCCCCCN=C(N)N (stereo unspecified) | – | 288 | 501 µM |
| Cc1cc2c(nn1)CCc1c-2no[n+]1[O-] | – | > 200 | 174 µM |
| CCCCCCCCCCCCC(=O)CCCCC(=O)O | inactive | – | – |
| Clc1cccc(Cl)c1C1CSc2ccccc2N=C1c1ccccc1 (stereo unspecified) | – | > 57.5 | 7.24 µM |
| CC(NC(=O)C(C)NC(=O)C(CC(N)=O)NC(=O)CN)C(=O)NC(CO)C(=O)NC(C)C(=O)NC(CCCN=C(N)N)C(N)=O (stereo unspecified) (H-GNAASAR-NH2; configuration not given here) | inactive | – | – |
| COc1nc(NC2OCC(OC(C)=O)C(OC(C)=O)C2OC(C)=O)c(-c2csc(N)n2)c(=O)n1C (stereo unspecified) | inactive | – | – |
| CC(C)(C)n1c(=O)n2c(-c3ccccc3)c(-c3ccccc3)n2c1=O | – | > 200 | 25.7 µM |
| COc1c(NS(=O)(=O)c2ccccc2)cc2c3c(cccc13)/C(=C1\Cc3cccc4c(OC)c(NS(=O)(=O)c5ccccc5)cc1c34)C2 | – | > 200 | 132 µM |
| O=C1NC(=O)C2(CCN(Cc3ccccc3)CC2)N1c1ccccc1 | – | > 200 | > 200 µM |
| O=C1CSC(=S)N1 | – | > 1860 | 794 µM |
| O=C(Nc1ccc(O)c(C(=O)O)c1)c1ccccc1 | – | > 200 | > 200 µM |
| O=C(CSc1nnc(-c2ccc(N=Cc3ccc(Cl)cc3)cc2)o1)Nc1cccc(Cl)c1 | – | > 74.1 | > 74.1 µM |
| O=C1c2cccc3c([N+](=O)[O-])ccc(c23)C(=O)N1CC1CCCO1 (stereo unspecified) | – | > 2 | 0.195 µM |
| CCCCCCCCCCCCSS(=O)(=O)c1ccc(C)cc1 | – | > 20.4 | 13.8 µM |
| N=c1ccc2nc(N)nn(O)c-2c1 | – | > 200 | > 200 µM |
| CCS[C@@H]([C@@H](COC(C)=O)OC(C)=O)[S@](=O)CC | – | > 200 | 26.3 µM |
| Cc1ccc(-c2csc(=Nc3c(C)n(C)n(-c4ccccc4)c3=O)n2CCO)cc1 | – | > 200 | 79.4 µM |
| CCN(Cc1cccc(S(=O)(=O)[O-])c1)c1ccc(C(=C2C=CC(=[N+](CC)Cc3cccc(S(=O)(=O)O)c3)C=C2)c2ccccc2S(=O)(=O)O)cc1 | inactive | – | – |

| SMILES | outcome | EC50 [µM] | IC50 |
| --- | --- | --- | --- |
| Cn1c(N)nc2c3ccc(=O)[nH]c3ccc21 | inactive | – | – |
| O=C(CCc1cccc(O)c1)NCCc1ccc(O)cc1 | – | 123 | > 200 µM |
| COC(=O)N1C2C(C[C@@]1(C)C(=O)OC)c1ccccc1N2S(=O)(=O)c1ccccc1 (stereo partly specified) | – | > 200 | > 200 µM |
| CC1(C)Oc2ccc(C3=NO[C@@H]4C(=O)N(c5ccc(Cc6ccc(N7C(=O)[C@H]8C(c9ccc%10c(c9)OC(C)(C)O%10)=NO[C@H]8C7=O)cc6)cc5)C(=O)[C@H]34)cc2O1 | – | > 91.2 | > 91.2 µM |
| O=c1/c(=C/c2ccc(Cl)cc2)sc2nc(-c3ccccc3)nn12 | – | > 200 | > 200 µM |
| CO/C(=N\N=C\c1cccc(C(F)(F)F)c1)c1ccncc1 | – | > 117 | 12.6 µM |
| COc1ccccc1NC(=O)C1=C(C)NC(C)=C(C(=O)Nc2ccccc2OC)C1c1ccc(C)cc1 | – | > 7.59 | > 7.59 µM |
| C[C@]12CC[C@H](OC(=O)/C=C\c3ccccc3N(CCCl)CCCl)CC1CC[C@@H]1C2CC[C@]2(C)NC(=O)CCC12 (stereo partly specified) | inactive | – | – |
| CC1(Cl)C(=O)NN=C1c1ccc([N+](=O)[O-])cc1 (stereo unspecified) | – | > 200 | 17.8 µM |
| O=C(Nc1cccc(C(=O)NCCCO)c1)/C(=C/c1ccccc1)NC(=O)c1ccccc1 | – | > 200 | > 200 µM |
| C=C[C@]1(C)CC(O)C2C(=C)C(=O)OC2[C@H]1C(=C)C=O (stereo partly specified) | – | > 200 | 3.31 µM |
| CC1=NN(c2nc(N)nc(-c3sccc3N)n2)C(C)(C)C1 | – | > 200 | 77.6 µM |
| O=C1/C(=N\O)c2ccccc2S1(=O)=O | inactive | – | – |
| N.N.N.N.O=C([O-])CCl.O=C([O-])CCl.[Co+3].[O-][Cl+3]([O-])([O-])[O-] | inactive | – | – |
| COC(=O)[C@@H]1[C@H]2[C@H](OC(=O)c3ccccc3)CCN2C(=O)[C@H]1O | – | > 200 | 75.9 µM |
| O=[N+]([O-])c1ccccc1-c1nc2nc(N3CCOCC3)nc(N3CCOCC3)n2n1 | – | > 77.6 | 52.5 µM |
| O=C1NC(=O)C23CCCCc4cccc(c42)C(=O)C13 (stereo unspecified) | – | > 372 | > 372 µM |
| CCOCc1cc(=O)c2cc3c(cc2o1)OC(C)(C)CC3 | inactive | – | – |
| O=C1C=C(Nc2ccc(S(=O)(=O)Nc3ncccn3)cc2)c2ccccc2C1=O | – | > 447 | 67.6 µM |
| O=C1c2cn[nH]c2N=C(Nc2ccccc2)C1N=Cc1ccc([N+](=O)[O-])cc1 (stereo unspecified) | – | > 200 | 102 µM |
| CC(=O)Nc1cc2cc(NC(=O)C(Cl)(Cl)Cl)ccc2oc1=O | – | > 81.3 | > 81.3 µM |
| On1c(-c2ccccc2)c(-c2ccccc2N2CCCC2)c2ccccc21 | inactive | – | – |
| C/C(=N\NC(=S)N1CCC(C2CCN(C(=S)N/N=C(\C)c3ccccn3)CC2)CC1)c1ccccn1 | – | > 3.8 | 1.91 µM |

| SMILES | outcome | EC50 [µM] | IC50 |
| --- | --- | --- | --- |
| Cc1ccc(C(=O)NCCCl)cc1C | inactive | – | – |
| CCOC1=NC(C(F)(F)F)(C(F)(F)F)N=C(N2CCCCC2)O1 | – | > 200 | 97.7 µM |
| COc1ccccc1Nc1nc(N)nc(N)c1N=O | – | > 200 | > 200 µM |
| CN(CCN1C(=O)c2cccc3cccc(c23)C1=O)CCN1C(=O)c2cccc3cccc(c23)C1=O | – | > 26.3 | 9.12 µM |
| Cc1ccc(S(=O)(=O)c2scc(-c3ccccc3)c2C)cc1 | – | > 200 | 107 µM |
| CC1CCC(NC(=O)N(CCCl)N=O)CC1 (stereo unspecified) | – | > 145 | > 145 µM |
| COC(=O)C1=C(C(=O)[C@H](Cc2ccccc2)NC(=O)c2ccccc2)CCC1 | – | > 95.5 | 89.1 µM |
| COc1c(C)cc2c(C(C)C)c(O)c(O)c(C=O)c2c1O | – | > 871 | 14.8 µM |
| COC(=O)C(Cc1ccc(Oc2cc(CC(NC(=O)c3ccccc3)C(=O)OC)ccc2OC)cc1)NC(=O)c1ccccc1 (stereo unspecified) | – | > 200 | 16.6 µM |
| O=C1/C(=C/c2ccccc2)CN(C(=O)C(Cl)(Cl)Cl)C/C1=C\c1ccccc1 | inactive | – | – |
| CC(C)(Br)C(=O)C(Br)Br | – | > 200 | 5.25 µM |
| Clc1cc(Cl)cc(C=NC23CC4CC(CC(C4)C2)C3)c1 | – | > 200 | 44.7 µM |
| O=C(O)C1=C(C(=O)O)N(c2ccncc2)C(c2ccco2)=CC1c1ccccc1[N+](=O)[O-] (stereo unspecified) | – | > 200 | 2.24 µM |
| Cc1ccccc1S(=O)(=O)N1CCN(S(=O)(=O)c2ccccc2C)CC1 | – | > 200 | > 200 µM |
| NC1CC2NC3CCCCC3NC2CC1N (stereo unspecified) | – | > 200 | 27.5 µM |
| CC1(c2cccc3ccc(F)cc23)OC(=O)c2ccccc21 (stereo unspecified) | – | > 41.7 | 7.94 µM |
| O=C1C=CC2OC(c3ccccc3)[C@H](O)C2O1 (stereo partly specified) | – | > 1070 | 6.92 µM |
| CC(=O)Oc1c(-c2ccccc2)[nH]c2cc([N+](=O)[O-])c(/C(Cl)=C/c3ccccc3)cc12 | – | > 6.31 | > 6.31 µM |
| CCN1C(=O)/C(=C2\SC(c3ccccc3)(c3ccccc3)c3ccccc32)SC1=S | – | > 200 | > 200 µM |
| COc1ccc(C(=O)O)c(Cc2cccc3ccccc23)c1 | inactive | – | – |
